From patent US9096592B2, “Bicyclic aza heterocycles, and use thereof” (BAYER INTELLECTUAL PROPERTY GMBH, priority 2010, dated 2015)
pIC50: −log10 of the molar value. Counter-ions that a name gives are not always drawn.

System: aorta rings
Test: Vasorelaxant action in vitro (phenylephrine-contracted rabbit aorta rings, organ bath)
Details: Oryctolagus cuniculus; concentration needed to reduce the phenylephrine contraction of rabbit aorta rings by 50%
Method: B-1. Vasorelaxant Action In Vitro
Rabbits are stunned by a blow to the neck and exsanguinated. The aorta is removed, freed from adhering tissue and divided into rings of width 1.5 mm, which are placed individually under prestress into 5 ml organ baths with carbogen-sparged Krebs-Henseleit solution at 37° C. having the following composition (each mM): sodium chloride 119; potassium chloride: 4.8; calcium chloride dihydrate: 1; magnesium sulfate heptahydrate: 1.4; potassium dihydrogenphosphate: 1.2; sodium hydrogencarbonate: 25; glucose: 10. The contractile force is determined with Statham UC2 cells, amplified and digitalized using A/D transducers (DAS-1802 HC, Keithley Instruments Munich), and recorded in parallel on linear recorders. To obtain a contraction, phenylephrine is added to the bath cumulatively in increasing concentration. After several control cycles, the substance to be studied is added in increasing dosage each time in every further run, and the magnitude of the contraction is compared with the magnitude of the contraction attained in the last preceding run. This is used to calculate the concentration needed to reduce the magnitude of the control value by 50% (IC50 value). The standard administration volume is 5 μl; the DMSO content in the bath solution corresponds to 0.1%.

Row | Compound | pIC50
1 | CC(C)c1nc2c(N)nc(-c3nn(Cc4ccccc4F)c4ncccc34)nc2[nH]c1=O [Example 83, 4-Amino-2-[1-(2-fluorobenzyl)-1H-pyrazolo[3,4-b]pyridin-3-yl]-6-isopropylpteridin-7(8H)-one] | 7.57
2 | Cn1c(=O)[nH]c2nc(-c3nn(Cc4ccccc4F)c4ncc(F)cc34)ncc21 [Example 95, 2-[5-Fluoro-1-(2-fluorobenzyl)-1H-pyrazolo[3,4-b]pyridin-3-yl]-7-methyl-7,9-dihydro-8H-purin-8-one] | 7.36
3 | CCOC(=O)N1CCNc2nc(-c3nn(Cc4ccccc4F)c4ncccc34)nc(N)c21 [Example 76, Ethyl 4-amino-2-[1-(2-fluorobenzyl)-1H-pyrazolo[3,4-b]pyridin-3-yl]-7,8-dihydropteridine-5(6H)-carboxylate formate] | 7.64
4 | O=c1[nH]c2nc(-c3nn(Cc4ccccc4F)c4ncccc34)ncc2n1C1CCN(CC(F)F)CC1 [Example 145, 7-[1-(2,2-Difluoroethyl)piperidin-4-yl]-2-[1-(2-fluorobenzyl)-1H-pyrazolo[3,4-b]pyridin-3-yl]-7,9-dihydro-8H-purin-8-one] | 6.77
5 | O=c1[nH]c2nc(-c3nn(Cc4ccccc4F)c4ncccc34)ncc2n1C1CCN(C2CC2)CC1 [Example 104, 7-(1-Cyclopropylpiperidin-4-yl)-2-[1-(2-fluorobenzyl)-1H-pyrazolo[3,4-b]pyridin-3-yl]-7,9-dihydro-8H-purin-8-one] | 7.40
6 | O=c1[nH]c2ccc(-c3nn(Cc4ccccc4F)c4ncccc34)nc2[nH]1 [Example 71, 5-[1-(2-Fluorobenzyl)-1H-pyrazolo[3,4-b]pyridin-3-yl]-1,3-dihydro-2H-imidazo[4,5-b]pyridin-2-one] | 7.07
7 | Nc1nc(-c2nn(Cc3ccccc3F)c3ncccc23)nc2ncn(CC(F)(F)F)c12 [Example 60, 2-[1-(2-Fluorobenzyl)-1H-pyrazolo[3,4-b]pyridin-3-yl]-7-(2,2,2-trifluoroethyl)-7H-purin-6-amine] | 6.70
8 | CC1=Nc2c(N)nc(-c3nn(Cc4ccccc4F)c4ncccc34)nc2NCC1 [Example 23, 2-[1-(2-Fluorobenzyl)-1H-pyrazolo[3,4-b]pyridin-3-yl]-6-methyl-8,9-dihydro-7H-pyrimido[4,5-b][1,4]diazepin-4-amine] | 6.71
9 | Nc1nc(-c2nn(Cc3ccccc3F)c3ncccc23)nc2sccc12 [Example 12, 2-[1-(2-Fluorobenzyl)-1H-pyrazolo[3,4-b]pyridin-3-yl]thieno[2,3-d]pyrimidin-4-amine] | 6.55
10 | O=c1[nH]c(=O)c2cnc(-c3nn(Cc4ccccc4F)c4ncccc34)nc2[nH]1 [Example 150, 7-[1-(2-Fluorobenzyl)-1H-pyrazolo[3,4-b]pyridin-3-yl]pyrimido[4,5-d]pyrimidine-2,4(1H,3H)-dione] | 6.32
11 | Cn1c(=O)[nH]c2nc(-n3nc(Cc4ccccc4F)c4ncccc43)nc(N)c21 [Example 89, 6-Amino-2-[3-(2-fluorobenzyl)-1H-pyrazolo[4,3-b]pyridin-1-yl]-7-methyl-7,9-dihydro-8H-purin-8-one] | 6.84
12 | O=c1[nH]c2nc(-c3nn(Cc4ccccc4F)c4ncccc34)ncc2c(=O)n1CC(F)(F)F [Example 149, 7-[1-(2-Fluorobenzyl)-1H-pyrazolo[3,4-b]pyridin-3-yl]-3-(2,2,2-trifluoroethyl)pyrimido[4,5-d]pyrimidine-2,4(1H,3H)-dione] | 6.34
13 | Nc1nc(-c2nn(Cc3ccccc3F)c3ncccc23)nc2[nH]c(=O)n(CC(F)(F)F)c12 [Example 44, 6-Amino-2-[1-(2-fluorobenzyl)-1H-pyrazolo[3,4-b]pyridin-3-yl]-7-(2,2,2-trifluoroethyl)-7,9-dihydro-8H-purin-8-one] | 7.08
14 | Nc1nc(-c2nn(Cc3ccccc3F)c3ncccc23)nc2[nH]nc(OCCO)c12 [Example 21, 2-({4-Amino-6-[1-(2-fluorobenzyl)-1H-pyrazolo[3,4-b]pyridin-3-yl]-1H-pyrazolo[3,4-d]pyrimidin-3-yl}oxy)ethanol] | 6.63
15 | CS(=O)(=O)CCn1c(=O)[nH]c2nc(-c3nn(Cc4ccccc4F)c4ncc(F)cc34)ncc21 [Example 146, 2-[5-Fluoro-1-(2-fluorobenzyl)-1H-pyrazolo[3,4-b]pyridin-3-yl]-7-[2-(methylsulfonyl)ethyl]-7,9-dihydro-8H-purin-8-one] | 6.38
16 | Cn1c(=O)[nH]c2nc(-c3nn(Cc4ccccc4F)c4ncccc34)nc(C#CC(C)(C)O)c21 [Example 135, 2-[1-(2-Fluorobenzyl)-1H-pyrazolo[3,4-b]pyridin-3-yl]-6-(3-hydroxy-3-methylbut-1-yn-1-yl)-7-methyl-7,9-dihydro-8H-purin-8-one] | 6.58
17 | Nc1nc(-c2nn(Cc3ccccc3F)c3ncccc23)nc2nsnc12 [Example 57, 5-[1-(2-Fluorobenzyl)-1H-pyrazolo[3,4-b]pyridin-3-yl][1,2,5]thiadiazolo[3,4-d]pyrimidin-7-amine] | 7.41

Row | Compound | pIC50
18 | Nc1nc(-c2nn(Cc3ccccc3F)c3ncccc23)nc2cccc(Cl)c12 [Example 7, 5-Chloro-2-[1-(2-fluorobenzyl)-1H-pyrazolo[3,4-b]pyridin-3-yl]quinazolin-4-amine] | 5.96
19 | CC(C)(C)Cn1c(=O)[nH]c2nc(-c3nn(Cc4ccccc4F)c4ncccc34)ncc21 [Example 122, 7-(2,2-Dimethylpropyl)-2-[1-(2-fluorobenzyl)-1H-pyrazolo[3,4-b]pyridin-3-yl]-7,9-dihydro-8H-purin-8-one] | 7.38
20 | CSc1nc2c(N)nc(-c3nn(Cc4ccccc4F)c4ncccc34)nc2[nH]1 [Example 29, 2-[1-(2-Fluorobenzyl)-1H-pyrazolo[3,4-b]pyridin-3-yl]-8-(methylsulfanyl)-7H-purin-6-amine] | 7.51
21 | Fc1ccccc1Cn1nc(-c2ncc3ccccc3n2)c2cccnc21 [Example 74, 2-[1-(2-Fluorobenzyl)-1H-pyrazolo[3,4-b]pyridin-3-yl]quinazoline] | 6.15
22 | Cc1nsc2nc(-c3nn(Cc4ccccc4F)c4ncccc34)nc(N)c12 [Example 13, 6-[1-(2-Fluorobenzyl)-1H-pyrazolo[3,4-b]pyridin-3-yl]-3-methyl[1,2]thiazolo[5,4-d]pyrimidin-4-amine] | 6.61
23 | Nc1nc(-n2nc(Cc3ccccc3F)c3ncccc32)nc2[nH]c(=O)[nH]c12 [Example 90, 6-Amino-2-[3-(2-fluorobenzyl)-1H-pyrazolo[4,3-b]pyridin-1-yl]-7,9-dihydro-8H-purin-8-one] | 5.22
24 | Nc1nc(-c2nn(Cc3ccccc3F)c3ncccc23)nc2ccncc12 [Example 84, 2-[1-(2-Fluorobenzyl)-1H-pyrazolo[3,4-b]pyridin-3-yl]pyrido[4,3-d]pyrimidin-4-amine] | 6.81
25 | Cc1nc(-c2nn(Cc3ccccc3F)c3ncccc23)nc2[nH]c(=O)[nH]c12 [Example 119, 2-[1-(2-Fluorobenzyl)-1H-pyrazolo[3,4-b]pyridin-3-yl]-6-methyl-7,9-dihydro-8H-purin-8-one] | 6.13
26 | Nc1nc(-c2nn(Cc3ccccc3F)c3ncccc23)nc2[nH]c(=S)[nH]c12 [Example 28, 6-Amino-2-[1-(2-fluorobenzyl)-1H-pyrazolo[3,4-b]pyridin-3-yl]-7,9-dihydro-8H-purine-8-thione] | 6.10
27 | Fc1cnc2c(c1)c(-c1ncc3cc[nH]c3n1)nn2Cc1ccccc1F [Example 97, 5-Fluoro-1-(2-fluorobenzyl)-3-(7H-pyrrolo[2,3-d]pyrimidin-2-yl)-1H-pyrazolo[3,4-b]pyridine] | 6.33
28 | Nc1nc(-c2nn(Cc3ccccc3F)c3ncccc23)nc2nccnc12 [Example 52, 2-[1-(2-Fluorobenzyl)-1H-pyrazolo[3,4-b]pyridin-3-yl]pteridin-4-amine] | 6.90
29 | Nc1nc(-c2nn(Cc3ccccc3F)c3ncccc23)nc2nc(C(F)(F)F)n(CC(F)(F)F)c12 [Example 61, 2-[1-(2-Fluorobenzyl)-1H-pyrazolo[3,4-b]pyridin-3-yl]-7-(2,2,2-trifluoroethyl)-8-(trifluoromethyl)-7H-purin-6-amine] | 6.12
30 | Nc1nc(-n2nc(Cc3ccccc3F)c3ncccc32)nc2[nH]c(=O)n(Cc3ccc(F)cc3)c12 [Example 91, 6-Amino-7-(4-fluorobenzyl)-2-[3-(2-fluorobenzyl)-1H-pyrazolo[4,3-b]pyridin-1-yl]-7,9-dihydro-8H-purin-8-one] | 6.32
31 | O=c1[nH]c2nc(-c3nn(Cc4ccccc4F)c4ncccc34)ncc2n1CCN1CCOCC1 [Example 142, 2-[1-(2-Fluorobenzyl)-1H-pyrazolo[3,4-b]pyridin-3-yl]-7-[2-(morpholin-4-yl)ethyl]-7,9-dihydro-8H-purin-8-one] | 7.01
32 | Nc1nc(-c2nn(Cc3ccccc3F)c3ncc(F)cc23)nc2[nH]c(=O)n(CC(F)(F)F)c12 [Example 62, 6-Amino-2-[5-fluoro-1-(2-fluorobenzyl)-1H-pyrazolo[3,4-b]pyridin-3-yl]-7-(2,2,2-trifluoroethyl)-7,9-dihydro-8H-purin-8-one] | 6.94
33 | O=c1[nH]c2nc(-c3nn(Cc4ccccc4F)c4ncccc34)ncc2n1Cc1ccccc1F [Example 124, 7-(2-fluorobenzyl)-2-[1-(2-fluorobenzyl)-1H-pyrazolo[3,4-b]pyridin-3-yl]-7,9-dihydro-8H-purin-8-one] | 7.06
34 | COC(=O)N1NC(=O)Nc2nc(-c3nn(Cc4ccccc4F)c4ncccc34)nc(N)c21 [Example 105, Methyl 8-amino-6-[1-(2-fluorobenzyl)-1H-pyrazolo[3,4-b]pyridin-3-yl]-3-oxo-3,4-dihydropyrimido[4,5-e][1,2,4]triazine-1(2H)-carboxylate] | 6.40
